Reference: patent US8513232B2, “Substituted spirocyclic piperidine derivatives as histamine-3 (H3) receptor ligands” (Cephalon, Inc., priority 2008, dated 2013)
Like-named read-outs stand apart in the source and are kept apart here.

Assays:
[1] = target: T1, rat histamine H3 receptor (Rattus norvegicus, UniProt Q9QYN8); test: Rat H3 radioligand binding ([3H]-N-alpha-methylhistamine, SPA)
T1 construct: encoding the entire 445-amino-acid rat histamine H3 receptor; expressed in transfected cells; membrane preparation
Procedure, shortened: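 SPA-bead binding assay using [3H]-N-alpha-methylhistamine (approximately 1 nM final) with test compounds from 0.01 nM to 30 μM. Rat H3 receptor membranes came from stably transfected CHO-A3 cells; incubation ran 4 h at room temperature, in the dark, in Tris pH 7.4 buffer with MgCl2 and BSA. Clobenpropit (10 μM) gave non-specific binding.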

[2] = target: T2, human H3 receptor (Homo sapiens, UniProt Q9Y5N1); test: Human H3 radioligand binding ([3H]-N-alpha-methylhistamine, SPA)
T2 construct: expressed in transfected cells
Procedure, shortened: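 Compounds (0.01 nM-30 μM) competed with approximately 1 nM [3H]-N-alpha-methylhistamine for human H3 receptor in membranes of stably transfected CHO cells, 10 μg protein per well, in Tris-HCl pH 7.4/MgCl2/BSA buffer for 4 h at room temperature. Bound radioligand measured by scintillation proximity; 10 μM clobenpropit gave non-specific binding.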

[3] = Rat H3 binding, Table B, Examples 136-362, read-out: rat H3 binding Ki
[4] = Human H3 binding, Table B, Examples 136-362, read-out: hum H3 binding Ki
[5] = Table A, rat H3 binding, read-out: Rat Ki
[6] = Table A, human H3 binding, read-out: Human Ki
[7] = Table C, rat H3 binding, read-out: Rat H3 Ki
[8] = Table C, human H3 binding, read-out: Human H3 Ki
[9] = rat H3 binding, Table D, read-out: Rat H3 Ki
[10] = human H3 binding, Table D, read-out: Human H3 Ki

T2 sequence (Q9Y5N1 whole entry): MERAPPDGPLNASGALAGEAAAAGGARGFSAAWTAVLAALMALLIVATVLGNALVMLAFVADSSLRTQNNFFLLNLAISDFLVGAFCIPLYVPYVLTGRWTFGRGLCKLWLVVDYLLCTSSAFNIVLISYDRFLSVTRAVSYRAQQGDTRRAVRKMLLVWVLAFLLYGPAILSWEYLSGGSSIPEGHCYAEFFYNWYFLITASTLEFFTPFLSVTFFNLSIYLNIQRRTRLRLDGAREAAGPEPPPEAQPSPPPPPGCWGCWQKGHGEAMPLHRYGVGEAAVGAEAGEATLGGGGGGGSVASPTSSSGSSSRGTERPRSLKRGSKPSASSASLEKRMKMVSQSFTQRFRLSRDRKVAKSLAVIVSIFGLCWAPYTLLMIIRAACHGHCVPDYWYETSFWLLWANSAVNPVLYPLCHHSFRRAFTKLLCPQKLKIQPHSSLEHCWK
T1 sequence (Q9QYN8 whole entry): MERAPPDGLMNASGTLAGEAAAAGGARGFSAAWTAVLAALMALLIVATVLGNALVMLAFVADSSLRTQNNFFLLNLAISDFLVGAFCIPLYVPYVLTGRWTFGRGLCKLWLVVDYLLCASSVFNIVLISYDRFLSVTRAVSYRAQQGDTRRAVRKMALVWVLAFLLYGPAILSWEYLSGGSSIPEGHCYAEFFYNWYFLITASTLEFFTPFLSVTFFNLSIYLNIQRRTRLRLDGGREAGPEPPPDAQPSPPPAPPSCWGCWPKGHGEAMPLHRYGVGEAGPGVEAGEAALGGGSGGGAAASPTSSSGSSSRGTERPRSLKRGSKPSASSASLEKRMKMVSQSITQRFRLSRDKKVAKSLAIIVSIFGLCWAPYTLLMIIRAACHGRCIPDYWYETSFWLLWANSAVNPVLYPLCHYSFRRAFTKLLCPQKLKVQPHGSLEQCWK

melting point [°C]	Ki [1, 9] [nM]	Ki [2, 10] [nM]	SMILES	other results
264 to 266	–	–	COCC(C)(C)NC(=O)c1ccc(-c2ccc3c(c2)CCC2(CCN(C4CCC4)CC2)O3)cc1 [Example 274]	Ki [1, 3]: < 200 nM; Ki [2, 4]: < 200 nM
109.3	–	–	NC(=O)c1cccc(-c2ccc3c(c2)COC2(CCN(C4CCC4)CC2)O3)c1 [Example 58]	Ki [1, 5]: < 200 nM; Ki [2, 6]: < 200 nM
256 to 258	–	–	c1cnc(Oc2ccc3c(c2)CCC2(CCN(C4CCC4)CC2)O3)cn1 [Example 415]	Ki [1, 7]: < 200 nM; Ki [2, 8]: < 200 nM
227 to 228	–	–	Cn1cc(C(=O)Nc2ccc3c(c2)COC2(CCN(C4CCC4)CC2)O3)cn1 [Example 227]	Ki [1, 3]: 200 to 1000 nM; Ki [2, 4]: < 200 nM
58 to 60	–	–	COCCNC(=O)c1ccc(-c2ccc3c(c2)CCC2(CCN(C4CCC4)C2)O3)cc1F (stereo not drawn) [Example 337]	Ki [1, 3]: < 200 nM; Ki [2, 4]: < 200 nM
120 to 123	< 200	< 200	Cn1cc(-c2ccc3c(c2)COC2(CCN(C4CCC4)CC2)O3)c(CO)cc1=O [Example 770]	–
72 to 74	–	–	CC(=O)OC1(c2ccc3c(c2)COC2(CCN(C4CCC4)CC2)O3)CC(C(=O)N2CCCC2)C1 (stereo not drawn) [Example 541]	Ki ([1]; read-out: Rat H3 kI): < 200 nM; Ki ([2]; read-out: Human H3 Ki): < 200 nM
90.4 to 92.6	–	–	O=C(c1ccc(-c2ccc3c(c2)CCC2(CCN(C4CCC4)CC2)O3)cc1)N1CCC(O)CC1 [Example 206]	Ki [1, 3]: < 200 nM; Ki [2, 4]: < 200 nM
85 to 87	–	–	O=C(c1ccc(-c2ccc3c(c2)COC2(CCN(C4CCC4)CC2)O3)cc1)N1CCC[C@@H](O)C1 [Example 201]	Ki [1, 3]: < 200 nM; Ki [2, 4]: < 200 nM
150 to 152	< 200	< 200	COC[C@H](C)NC(=O)c1ccc(-c2ccc3c(c2)COC2(CCN(C4CCC4)CC2)O3)cc1Cl [Example 598]	–
237 to 238	–	–	O=C(Nc1ccc(F)cc1)Nc1ccc2c(c1)COC1(CCN(C3CCC3)CC1)O2 [Example 248]	Ki [1, 3]: < 200 nM; Ki [2, 4]: < 200 nM
186 to 187	–	–	CC(=O)Nc1ccc(-c2ccc3c(c2)COC2(CCN(C4CCC4)CC2)O3)cn1 [Example 46]	Ki [1, 5]: < 200 nM; Ki [2, 6]: < 200 nM
108 to 110	< 200	< 200	O=C(NC1CCOCC1)c1ccc(-c2ccc3c(c2)COC2(CCN(C4CCC4)CC2)O3)cn1 [Example 639]	–
198 to 199	–	–	O=C(N[C@@H]1CCOC1)c1ccc(-c2ccc3c(c2)COC2(CCN(C4CCC4)CC2)O3)cc1 [Example 346]	Ki [1, 3]: < 200 nM; Ki [2, 4]: < 200 nM
128 to 130	< 200	< 200	O=C(NC[C@@H]1CCCO1)c1ccc(-c2ccc3c(c2)COC2(CCN(C4CCC4)CC2)O3)cc1F [Example 589]	–
59 to 61	< 200	< 200	CCc1nc(OC)ccc1-c1ccc2c(c1)COC1(CCN(C3CCC3)CC1)O2 [Example 789]	–
222 to 224	–	–	O=C(Nc1ccc2c(c1)COC1(CCN(C3CCC3)CC1)O2)c1cncs1 [Example 271]	Ki [1, 3]: < 200 nM; Ki [2, 4]: < 200 nM
65 to 70	–	–	O=c1ccc(-c2ccc3c(c2)COC2(CCN(C4CCC4)CC2)O3)cn1CC(F)F [Example 555]	Ki ([1]; read-out: Rat H3 kI): < 200 nM; Ki ([2]; read-out: Human H3 Ki): < 200 nM
57 to 61	–	–	c1cnc(Nc2ccc3c(c2)COC2(CCN(C4CCC4)CC2)O3)cn1 [Example 136]	Ki [1, 3]: < 200 nM; Ki [2, 4]: < 200 nM
87 to 89	< 200	< 200	Cc1nnc(CCc2ccc3c(c2)COC2(CCN(C4CCC4)CC2)O3)o1 [Example 673]	–
164 to 166	< 200	< 200	NC(=O)c1ccc(-c2ccc3c(c2)COC2(CCN(C4CCC4)CC2)O3)cc1Cl [Example 604]	–
145 to 146	< 200	< 200	COCCNC(=O)c1cc(-c2ccc3c(c2)COC2(CCN(C4CCC4)CC2)O3)cs1 [Example 578]	–
59 to 62	–	–	CNC(=O)N1CCN(c2ccc3c(c2)COC2(CCN(C4CCC4)CC2)O3)CC1 [Example 174]	Ki [1, 3]: < 200 nM; Ki [2, 4]: < 200 nM
155 to 158	–	–	[O-][S+]1CC=C(c2ccc3c(c2)COC2(CCN(C4CCC4)CC2)O3)CC1 (stereo not drawn) [Example 461]	Ki ([1]; read-out: Rat H3 kI): < 200 nM; Ki ([2]; read-out: Human H3 Ki): < 200 nM
112 to 113	–	–	c1csc(CNc2ccc3c(c2)COC2(CCN(C4CCC4)CC2)O3)c1 [Example 344]	Ki [1, 3]: < 200 nM; Ki [2, 4]: < 200 nM

melting point [°C]	Ki [1, 9] [nM]	Ki [2, 10] [nM]	SMILES	other results
239 to 241	–	–	CC(C)C(=O)N1CCC(Oc2ccc3c(c2)CCC2(CCN(C4CCC4)CC2)O3)CC1 [Example 427]	Ki [1, 7]: < 200 nM; Ki [2, 8]: < 200 nM
85.2 to 86.5	< 200	< 200	CCOCC1CCN(c2ccc3c(c2)COC2(CCN(C4CCC4)CC2)O3)CC1 [Example 627]	–
205 to 208	–	–	Cn1cc2c(n1)CCC(c1ccc3c(c1)CCC1(CCN(C4CCC4)CC1)O3)=C2 [Example 448]	Ki ([1]; read-out: Rat H3 kI): < 200 nM; Ki ([2]; read-out: Human H3 Ki): < 200 nM
252 to 254	< 200	< 200	Cc1cc(=O)[nH]cc1-c1ccc2c(c1)CCC1(CCN(C3CCC3)CC1)O2 [Example 771]	–
112 to 114	< 200	< 200	NC(=O)c1ccc(-c2ccc3c(c2)COC2(CCN(C4CCC4)CC2)O3)c(Cl)c1 [Example 715]	–
149 to 151	–	–	OC1(c2ccc3c(c2)COC2(CCN(C4CCC4)CC2)O3)CCCC1 [Example 509]	Ki ([1]; read-out: Rat H3 kI): < 200 nM; Ki ([2]; read-out: Human H3 Ki): < 200 nM
145 to 149	–	–	CNC(=O)N1CCN(c2ccc3c(c2)COC2(CCN(C4CCC4)CC2)O3)C(=O)C1 [Example 137]	Ki [1, 3]: 200 to 1000 nM; Ki [2, 4]: < 200 nM
255 to 257	–	–	c1cncc(Oc2ccc3c(c2)CCC2(CCN(C4CCC4)CC2)O3)c1 [Example 257]	Ki [1, 3]: < 200 nM; Ki [2, 4]: < 200 nM
58 to 60	< 200	< 200	COc1ccncc1-c1ccc2c(c1)COC1(CCN(C3CCC3)CC1)O2 [Example 749]	–
221 to 222	< 200	< 200	Cc1nc2cccc(C(F)(F)F)c2c(=O)n1-c1ccc2c(c1)COC1(CCN(C3CCC3)CC1)O2 [Example 791]	–
140 to 145	–	–	Fc1cncc(-c2ccc3c(c2)COC2(CCN(C4CCC4)CC2)O3)c1 [Example 4]	Ki [1, 5]: < 200 nM; Ki [2, 6]: < 200 nM
123 to 125	200 to 1000	200 to 1000	COc1ccc(-c2ccc3c(c2)COC2(CCN(C4CC(CO)C4)CC2)O3)cn1 (stereo not drawn) [Example 717]	–
97 to 99	–	–	c1cc2c(cc1OCC1CCOC1)CCC1(CCN(C3CCC3)CC1)O2 (stereo not drawn) [Example 463]	Ki ([1]; read-out: Rat H3 kI): < 200 nM; Ki ([2]; read-out: Human H3 Ki): < 200 nM
101 to 104	< 200	< 200	COCCN(C)C(=O)c1ccc(-c2ccc3c(c2)CCC2(CCN(C4CCC4)CC2)O3)cc1Cl [Example 575]	–
222 to 226	200 to 1000	200 to 1000	O=c1ccc(-c2ccc3c(c2)COC2(CCN(C4CCOC4)CC2)O3)c[nH]1 (stereo not drawn) [Example 729]	–
60.8 to 62.3	–	–	CC(=O)N1CCN(c2ccc3c(c2)COC2(CCN(C4CCC4)CC2)O3)CC1 [Example 283]	Ki [1, 3]: < 200 nM; Ki [2, 4]: < 200 nM
113 to 115	–	–	COc1cnc(-c2ccc3c(c2)COC2(CCN(C4CCC4)CC2)O3)nc1 [Example 470]	Ki ([1]; read-out: Rat H3 kI): < 200 nM; Ki ([2]; read-out: Human H3 Ki): < 200 nM
187 to 189	–	–	[O-][S+]1CCC(c2ccc3c(c2)COC2(CCN(C4CCC4)CC2)O3)CC1 (stereo not drawn) [Example 473]	Ki ([1]; read-out: Rat H3 kI): < 200 nM; Ki ([2]; read-out: Human H3 Ki): < 200 nM
79 to 81	–	–	OC(c1ccc(Cl)nc1)c1ccc2c(c1)COC1(CCN(C3CCC3)CC1)O2 (stereo not drawn) [Example 508]	Ki ([1]; read-out: Rat H3 kI): < 200 nM; Ki ([2]; read-out: Human H3 Ki): < 200 nM
123 to 127	–	–	Cc1noc(C)c1-c1ccc2c(c1)COC1(CCN(C3CCC3)CC1)O2 [Example 76]	Ki [1, 5]: < 200 nM; Ki [2, 6]: < 200 nM
87 to 90	< 200	< 200	CNC(=O)c1ccc(-c2ccc3c(c2)COC2(CCN(C4CCC4)CC2)O3)c(OC)c1 [Example 682]	–
127 to 129	< 200	< 200	CNS(=O)(=O)c1ccc(-c2ccc3c(c2)COC2(CCN(C4CCC4)CC2)O3)cc1Cl [Example 620]	–
168 to 170	–	–	COc1ccc(/C=C/c2ccc3c(c2)COC2(CCN(C4CCC4)CC2)O3)nn1 [Example 510]	Ki ([1]; read-out: Rat H3 kI): < 200 nM; Ki ([2]; read-out: Human H3 Ki): < 200 nM
182 to 184	–	–	c1csc(N2CCN(c3ccc4c(c3)CCC3(CCN(C5CCC5)CC3)O4)CC2)n1 [Example 374]	Ki [1, 7]: < 200 nM; Ki [2, 8]: < 200 nM
